Source: US20090143421A1, “USE OF 2-BENZOYL-IMIDAZOPYRIDINES IN THERAPEUTICS” (SANOFI-AVENTIS, priority 2006, published 2009)
pEC50: −log10 of the molar value. Counter-ions that a name gives are not always drawn.

Columns and labels:
human NOT receptor = test: binding to the human NOT receptor by SPR (BIACORE S51); details: immobilized GST-NOT whole protein and NOT ligand-binding domain, 3.75 to 0.1 μM, 4° C.
Experimental: Evaluation of the Binding to the Human NOT Receptor
The direct binding between compounds of the invention and the human NOT receptor was evaluated using SPR (surface plasmon resonance) technology. In this assay, the protein is immobilized covalently to the matrix and the molecule to be studied is injected into the chamber containing the sensor chip. The signal is directly proportional to the amount of product bound to the protein. The binding assays were carried out in a BIACORE S51 instrument (Biacore Inc., Piscataway N.J.). The GST-NOT (NOT-FL) whole protein was provided by Invitrogen (PV3265). The NOT ligand-binding domain (His-Thr-NOT 329-598) was expressed and purified as described in Nature 423, 555-560. The two proteins, diluted to a concentration of 20 μg/ml in an acetate buffer, pH 5.0, containing 5 mM of DTT, were immobilized on a carboxymethyl 5′ dextran surface (CM5 sensor chip, Biacore Inc.) by amine coupling according to the protocol recommended by Biacore, elution being carried with an HBS-N buffer (10 mM HEPES, 0.15 M NaCl, 3 mM EDTA, pH 7.4). Approximately 10000-15000 resonance units (RU) of the proteins are captured on the surface of the CM5 sensor chip. […] The dissociation was recorded for 5 minutes without any other procedure for regenerating the surface. […]

mouse Nurrl receptor = target: T1, mouse Nurrl receptor (Mus musculus, UniProt Q06219); test: in vitro activity on N2A cells (NBRE-luciferase reporter); format: cell-based; details: N2A-8NBRE-luciferase cells, 24 hours incubation with the products
T1 construct: a cell line (N2A) endogenously expressing the mouse Nurrl receptor; host or cells: Neuro-2A (N2A) mouse neuroblastoma cells stably transfected with 8NBRE-luciferase
T1 sequence (Q06219 whole entry): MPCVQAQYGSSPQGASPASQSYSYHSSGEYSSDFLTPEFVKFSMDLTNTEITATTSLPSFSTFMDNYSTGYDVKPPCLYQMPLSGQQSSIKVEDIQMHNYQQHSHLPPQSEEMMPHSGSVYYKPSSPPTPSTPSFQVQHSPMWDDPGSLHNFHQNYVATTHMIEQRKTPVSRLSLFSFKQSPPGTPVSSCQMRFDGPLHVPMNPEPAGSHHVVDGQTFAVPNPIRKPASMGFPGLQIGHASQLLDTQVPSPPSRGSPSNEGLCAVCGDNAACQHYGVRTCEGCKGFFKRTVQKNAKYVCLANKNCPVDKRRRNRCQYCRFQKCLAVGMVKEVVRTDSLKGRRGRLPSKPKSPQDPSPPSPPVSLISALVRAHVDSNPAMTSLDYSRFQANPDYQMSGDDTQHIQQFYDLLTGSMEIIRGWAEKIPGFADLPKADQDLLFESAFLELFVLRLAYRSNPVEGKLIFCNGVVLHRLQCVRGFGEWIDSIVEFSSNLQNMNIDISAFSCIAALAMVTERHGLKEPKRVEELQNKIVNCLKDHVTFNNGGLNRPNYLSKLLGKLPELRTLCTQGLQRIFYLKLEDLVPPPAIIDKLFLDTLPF
Experimental: Evaluation of the in vitro Activity on N2A Cells
Assays consisted in measuring the in vitro activity of the compounds of the invention on a cell line (N2A) endogenously expressing the mouse Nurrl receptor and stably transfected with the NOT binding response element (NBRE) coupled to the luciferase reporter gene. The EC50 values are between 0.01 and 1000 nM. The assays were carried out according to the procedure described below.
The Neuro-2A cell line comes from a standard commercial source (ATCC) . The Neuro-2A clone was obtained from a spontaneous tumor originating from an A albino mouse strain, by R. J Klebe et al. This Neuro-2A line is subsequently stably transfected with 8NBRE-luciferase. The N2A-8NBRE cells are cultured until confluence in 75 cm^2 culture flasks containing DMEM supplemented with 10% of fetal calf serum, 4.5 g/l of glucose and 0.4 mg/ml of geneticin. After a week of culture, the cells are recovered with 0.25% trypsin for 30 seconds and then resuspended in DMEM without phenol red, containing 4.5 g/l of glucose and 10% of Hyclone delipidized serum, and deposited into transparent-bottom 96-well white plates. The cells are deposited at a rate of 60 000 per well in 75 μl for 24 hours before the addition of the products. […] The plates are subsequently measured in a luminescence counter for microplates after having been sealed with an adhesive film. […]

Compound	affinity (classified by maximum binding level and kinetic parameters) (human NOT receptor)	pEC50 (mouse Nurrl receptor)
Cc1ccn2cc(C(=O)c3ccccc3)nc2c1 [Compound 6, (7-methylimidazo[1,2-a]pyridin-2-yl)(phenyl)methanone]	medium affinity	8.92
O=C(c1ccccc1)c1cn2ccccc2n1 [Compound 7, (imidazo[1,2-a]pyridin-2-yl)(phenyl)methanone]		7.51
O=C(c1ccccc1)c1cn2cc(Cl)ccc2n1 [Compound 3, (6-Chloroimidazo[1,2-a]Pyridin-2-yl)-(Phenyl)Methanone Hydrobromide (1:1)]	high affinity	
